For 24 molecules, TGI results are on record in PubChem BioAssay (NCI).

Structures are written as SMILES.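 These data come from cells grown in 96-well plates and exposed to compound for 48 hours at five concentrations. At the TGI there is no net growth.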 A value given as a limit tells only on which side of the number the result lay.

Some test systems named below: NCI-H522 lung; OVCAR-5 ovarian; RXF 393 renal; NCI-H23 lung; SW-620 colon; SF-295 CNS; MOLT-4 leukemia; UACC-257 melanoma; A498 renal.
What all share (test): growth of human tumour cells (NCI), 48 h

For `CCC1(C)NN=c2s/c(=C/c3ccc(OC)cc3)c(=O)n2N1` (configuration not stated), the TGI in the assay on NCI-H522 lung, with OVCAR-5 ovarian, in the assay with RXF 393 renal, with NCI-H23 lung, in the assay with SW-620 colon and in the assay on SF-295 CNS was more than 100 µM throughout. In addition, the TGI in the assay on MOLT-4 leukemia is more than 100 µM.

Regarding `CCC(C)CN1C(=O)NC(C)(Cc2ccccc2)C1=O` (configuration not stated), the TGI in the assay on NCI-H522 lung, in the assay on OVCAR-5 ovarian, in the assay with RXF 393 renal, with UACC-257 melanoma, in the assay on NCI-H23 lung and in the assay on SW-620 colon was more than 100 µM in each case. The TGI in the assay on SF-295 CNS was more than 100 µM.

On to `O=C(NCCCCCCCCNC(=O)c1cnc2ccccc2n1)c1cnc2ccccc2n1`, for which the TGI with OVCAR-5 ovarian, in the assay on RXF 393 renal, with UACC-257 melanoma, with NCI-H23 lung, in the assay on SW-620 colon and with SF-295 CNS was more than 100 µM each time. The TGI in the assay with A498 renal and in the assay with MOLT-4 leukemia was more than 100 µM each time.

As for `C=CCC1OC(C)(C)Oc2ccc(OCOCCOC)cc21` (configuration not stated), the TGI in the assay with OVCAR-5 ovarian, in the assay on RXF 393 renal, in the assay on UACC-257 melanoma, with NCI-H23 lung, in the assay on SW-620 colon and in the assay on SF-295 CNS was more than 100 µM each time. Also, the TGI with A498 renal and in the assay on MOLT-4 leukemia was more than 100 µM throughout.

In the case of `N#Cc1cccc(N2C(=O)c3c(c(-c4ccccc4)c(-c4ccc(Sc5ccc(-c6c(-c7ccccc7)c7c(c(-c8ccccc8)c6-c6ccccc6)C(=O)N(c6cccc(C#N)c6)C7=O)cc5)cc4)c(-c4ccccc4)c3-c3ccccc3)C2=O)c1`, the TGI with NCI-H522 lung is more than 100 µM; with OVCAR-5 ovarian, more than 100 µM; in the assay with RXF 393 renal it was 59.2 µM; in the assay on UACC-257 melanoma it was more than 100 µM; in the assay on NCI-H23 lung it was more than 100 µM; in the assay with SW-620 colon, more than 100 µM. The TGI with SF-295 CNS and with MOLT-4 leukemia was more than 100 µM each time.

As for `N=C(c1ccccc1)N(c1ccccc1)c1ccccc1`, the TGI in the assay on NCI-H522 lung, in the assay with OVCAR-5 ovarian, with RXF 393 renal, with UACC-257 melanoma, in the assay on NCI-H23 lung and in the assay on SW-620 colon was more than 100 µM in each case. Further, the TGI in the assay with SF-295 CNS is more than 100 µM.

With `CC1=C(C(=O)NCc2ccccc2)C(c2ccc(C3C(C(=O)NCc4ccccc4)=C(C)NC(C)=C3C(=O)NCc3ccccc3)cc2)C(C(=O)NCc2ccccc2)=C(C)N1`, the TGI in the assay with NCI-H522 lung is 10.1 µM; with OVCAR-5 ovarian, 39.9 µM; in the assay on RXF 393 renal, 33.4 µM; in the assay on UACC-257 melanoma it was 32.5 µM; with NCI-H23 lung it was 33.1 µM; with SW-620 colon it was 22.7 µM. In addition, the TGI in the assay on SF-295 CNS was 38.2 µM; with A498 renal it was 31.7 µM; in the assay with MOLT-4 leukemia it was more than 100 µM.

In the case of `CCOc1ccc(NC(=O)CC2SC(=Nc3ccc(Cl)cc3)NC2=O)cc1` (configuration not stated), the TGI in the assay with OVCAR-5 ovarian, in the assay with RXF 393 renal, in the assay with UACC-257 melanoma, in the assay with NCI-H23 lung, in the assay with SW-620 colon and with SF-295 CNS was more than 100 µM in each case. Further, the TGI in the assay on A498 renal and in the assay on MOLT-4 leukemia was more than 100 µM each time.

For the molecule `COc1cc2c(cc1O)C=NCC2`, the TGI in the assay on NCI-H522 lung, in the assay on OVCAR-5 ovarian, in the assay with UACC-257 melanoma, in the assay with NCI-H23 lung, with SW-620 colon and in the assay with SF-295 CNS was more than 100 µM throughout. The TGI in the assay on A498 renal and in the assay on MOLT-4 leukemia was more than 100 µM throughout.

Consider `C#CCC[C@@H]1O[C@@]1(C)CC/C=C(\C)CC/C=C/C=O`, for which the TGI is more than 100 µM in the assay with OVCAR-5 ovarian; more than 100 µM in the assay on RXF 393 renal; 69.7 µM with UACC-257 melanoma; more than 100 µM in the assay with NCI-H23 lung; 51.4 µM in the assay with SW-620 colon; 79.4 µM with SF-295 CNS. The molecule also had a TGI in the assay with MOLT-4 leukemia of 52.9 µM.

For `COc1ccc(/C(=N/NC(N)=O)C2(O)C(=O)Nc3ccc([N+](=O)[O-])cc32)cc1` (configuration not stated), the TGI in the assay on NCI-H522 lung stood at 41.9 µM; with OVCAR-5 ovarian, 81.2 µM; with UACC-257 melanoma, 39.4 µM; with NCI-H23 lung it was 31.6 µM; in the assay with SW-620 colon, 50.8 µM; in the assay with A498 renal it was 87.5 µM. The molecule further gave a TGI in the assay on MOLT-4 leukemia of 50 µM.

Consider `CC[P+](C)(Cc1ccccc1)c1ccccc1` (configuration not stated), for which the TGI in the assay on NCI-H522 lung, in the assay with OVCAR-5 ovarian, in the assay on RXF 393 renal, in the assay on UACC-257 melanoma, in the assay with NCI-H23 lung and in the assay on SW-620 colon was more than 100 µM throughout. In addition, the TGI in the assay on SF-295 CNS, in the assay on A498 renal and in the assay on MOLT-4 leukemia was more than 100 µM throughout.

On to `CN(C)c1ccc2c(c1)C(=O)N(OS(=O)(=O)c1ccc([N+](=O)[O-])cc1)C2=O`, for which the TGI with NCI-H522 lung came out at 30.5 µM; with OVCAR-5 ovarian, 57.6 µM; with RXF 393 renal, 28.1 µM; in the assay on UACC-257 melanoma, 58.8 µM; in the assay on NCI-H23 lung, 64 µM; in the assay on SW-620 colon, 46.8 µM. For the same molecule, the results for the TGI in the assay with SF-295 CNS and in the assay with A498 renal were 62.7 µM and more than 100 µM, respectively.

With `CC1CC2C3CC(F)C4=CC(=O)C=CC4(C)C3(F)C(O)CC2(C)C1(O)C(=O)COC(=O)C(C)(C)C` (configuration not stated), the TGI was more than 100 µM with NCI-H522 lung; more than 100 µM with OVCAR-5 ovarian; 76.6 µM in the assay with RXF 393 renal; more than 100 µM in the assay on UACC-257 melanoma; more than 100 µM with NCI-H23 lung; more than 100 µM with SW-620 colon. For the same molecule, the TGI in the assay on SF-295 CNS and in the assay with MOLT-4 leukemia was more than 100 µM in each case.

Turning to `c1ccc(SC2(Sc3ccccc3)CCCC2)cc1`, the TGI with NCI-H522 lung, in the assay with RXF 393 renal, in the assay on UACC-257 melanoma, in the assay on NCI-H23 lung, with SW-620 colon and in the assay with SF-295 CNS was more than 100 µM in each case. Besides, the TGI with A498 renal and with MOLT-4 leukemia was more than 100 µM throughout.

Regarding `Cc1ccc(C(=O)O/N=C2/CCCC/C2=C\c2ccccc2)cc1`, the TGI was 31.7 µM in the assay on NCI-H522 lung; more than 100 µM in the assay with OVCAR-5 ovarian; more than 100 µM in the assay with RXF 393 renal; more than 100 µM in the assay on UACC-257 melanoma; more than 100 µM in the assay with NCI-H23 lung; more than 100 µM with SW-620 colon. In the assay on SF-295 CNS, this molecule registered a TGI of more than 100 µM.

As to `CC1=CCC[C@@]2(C)C(CC[C@@H]2C(C)/C=C/C(C)C)c2ccc(cc2C(=O)O)C[C@@H](O)CC1` (some centres not stated), the TGI with NCI-H522 lung turned out to be 29.8 µM; in the assay with OVCAR-5 ovarian it was 30 µM; in the assay on RXF 393 renal, 30 µM; in the assay with UACC-257 melanoma it was 30.5 µM; in the assay on SW-620 colon it was 32.2 µM; in the assay with SF-295 CNS, 21.7 µM. In addition, the TGI in the assay with A498 renal was determined as 35.3 µM; in the assay on MOLT-4 leukemia, 28 µM.

For the molecule `Cc1ccc(C)c(NC(=O)C(=O)CC(=O)C2CCOC2=O)c1` (configuration not stated), the TGI with NCI-H522 lung, in the assay with OVCAR-5 ovarian, in the assay on RXF 393 renal, in the assay on UACC-257 melanoma, with NCI-H23 lung and with SW-620 colon was more than 100 µM throughout. The TGI in the assay on SF-295 CNS and in the assay on A498 renal was more than 100 µM throughout.

Take `CC1=CC2CC(C)=C(CC[C@]3(C)CC[C@H]([C@@H](C)C(=O)O)OO3)C(C)(C)C2CC1` (some centres not stated): the TGI in the assay with NCI-H522 lung came to 0.383 µM; in the assay with OVCAR-5 ovarian it was 3.8 µM; in the assay with RXF 393 renal, 1.09 µM; in the assay with UACC-257 melanoma it was 3.03 µM; with NCI-H23 lung, 2.35 µM; in the assay on SW-620 colon, 0.354 µM. For the same molecule, the figures for the TGI in the assay on SF-295 CNS and with A498 renal were 2.67 µM and 3.14 µM, respectively.

`NNC(=S)N/N=C(\CCCC(=O)NCCc1ccccc1)CC(=O)c1ccccc1`: the TGI in the assay with NCI-H522 lung, with OVCAR-5 ovarian, with RXF 393 renal, in the assay on UACC-257 melanoma, in the assay with NCI-H23 lung and with SW-620 colon was more than 100 µM throughout. Also, the TGI in the assay on SF-295 CNS and in the assay on A498 renal was more than 100 µM each time.

As for `O=C1c2ccccc2C2(O)Nc3cc(O)ccc3C12O` (configuration not stated), the TGI in the assay on NCI-H522 lung, in the assay with OVCAR-5 ovarian, in the assay with RXF 393 renal, in the assay with NCI-H23 lung, in the assay on SW-620 colon and in the assay with SF-295 CNS was more than 100 µM in each case. Moreover, the TGI in the assay on A498 renal and in the assay with MOLT-4 leukemia was more than 100 µM in each case.

`O=C1OC(=O)c2c1c(-c1ccccc1)cn2-c1ccc(Cl)cc1`: the TGI with NCI-H522 lung, with OVCAR-5 ovarian, with UACC-257 melanoma, in the assay on NCI-H23 lung, in the assay on SW-620 colon and in the assay on SF-295 CNS was more than 100 µM each time. The molecule also displayed a TGI in the assay with MOLT-4 leukemia of more than 100 µM.

Turning to `O=C(O)CN(c1ccccc1)S(=O)(=O)c1ccc(NC(=O)c2ccccc2)cc1`, the TGI in the assay with NCI-H522 lung, with OVCAR-5 ovarian, in the assay with RXF 393 renal, in the assay on UACC-257 melanoma, in the assay with NCI-H23 lung and with SW-620 colon was more than 100 µM in each case. For the same molecule, the TGI in the assay with A498 renal and in the assay on MOLT-4 leukemia was more than 100 µM in each case.

As to `COC(=O)Cc1cc(OC)c(OC)cc1Br`, the TGI in the assay on NCI-H522 lung, with OVCAR-5 ovarian, with UACC-257 melanoma, in the assay on NCI-H23 lung, in the assay on SW-620 colon and in the assay on SF-295 CNS was more than 100 µM throughout. Further, the TGI in the assay with A498 renal and in the assay on MOLT-4 leukemia was more than 100 µM each time.
